Test results reported in US20090274773A1, “ANTIPROLIFERATIVE COMBINATION COMPRISING CYC-682 AND A CYTOTOXIC AGENT” (Cyclacel Limited, priority 2005, published 2009).

How the values were obtained:
Format in all cases: cell-based, human
NSCLC cell line H1299 = assay: CNDAC combinations (alamar blue, Calcusyn Combination Index); settings: for Interaction with CNDAC (in words), summary of Table 3: combination with CNDAC, regime not specified; for Combination Index at ED50, Concomitant / Combination Index at ED75, Concomitant / Combination Index at ED90, Concomitant: simultaneous treatment 72 h
Experimental: Experiments in the NSCLC cell lines H1299 or RERF-LC-MA were performed in 96-well plates, with cells seeded at a density of 3,000/well, in DMEM containing 10% (v/v) FCS. Stock solutions of all drugs were made up in dimethylsulfoxide (DMSO), with the exception of gemcitabine, which was dissolved in 0.9% (w/v) sterile saline solution.
For experimental assessment of potential synergistic interactions, the concomitant treatment regime involved simultaneous treatment of cells with CNDAC and the other agent under investigation for 72 h, alongside suitable controls of cells treated with the individual compounds alone for 72 hr. In the sequential treatment regimes, one drug was added to the cells 2 h after plating, and left for 24 h. Media was then aspirated, replaced with fresh media containing the second drug and incubated for 72 h. The two individual treatment controls for the sequential treatment regime involved substituting one of the drug treatments with drug-free media. […] Drug interactions were analysed using the Calcusyn software package (BioSoft, Cambridge, U.K.) described below.

HCT116 = assay: MTT growth inhibition assay, single agent; settings: Homo sapiens, HCT-116, 24 hours exposure, read-out: Antiproliferative effects IC50s (MTT assay)
Experimental: (§1) All cell lines were obtained from the ATCC (Rockville, Md.). Cells were grown as monolayers in RPMI medium supplemented with 10% fetal calf serum (Invitrogen, Cergy-Pontoise, France), 2 mM glutamine, 100 units/ml penicillin and 100 μg/ml streptomycin. All cells were split twice a week using trypsin/EDTA (0.25% and 0.02%, respectively; Invitrogen, Cergy-Pontoise, France) and seeded at a concentration of 2.5×10^4 cells/ml. All cell lines were tested regularly for Mycoplasma contamination by PCR using a Stratagene kit (La Jolla, Calif.).
(§2) The MTT assay was carried out as described previously (Hansen M B, Nielsen S E, Berg K. Re-examination and further development of a precise and rapid dye method for measuring cell growth/cell kill. J Immunol Methods. 1989 May 12; 119(2):203-10). In brief, cells were seeded in 96-well tissue culture plates at a density of 2×10^3 cells/well. Cell viability was determined after a 120-hour incubation, by the calorimetric conversion of yellow, water-soluble tetrazolium MTT (3-[4,5-dimethylthiazol-2-yl]-2,5-diphenyltetrazolium bromide; Sigma, Saint-Quentin Fallavier, France), into purple, water-insoluble formazan. This reaction is catalyzed by mitochondrial dehydrogenases and is used to estimate the relative number of viable cells (Mosmann, T, Rapid calorimetric assay for cellular growth and survival: application to proliferation and cytotoxicity assays. J Immunol Methods. 1983 Dec. 16; 65 (1-2):55-63). Cells were incubated with 0.4 mg/ml MTT for 4 hours at 37° C. After incubation, the supernatant was discarded, the cell pellet was resuspended in 0.1 ml of DMSO and the absorbance was measured at 560 nm using a microplate reader (Dynatech, Michigan). Wells with untreated cells or with drug-containing medium without cells were used as positive and negative controls, respectively. Growth inhibition curves were plotted as a percentage of untreated control cells.
(§3) The cells were seeded at 2×10^3 cells/well in 96-well plates and treated 24 hours later with increasing concentrations of CYC682. After incubation times of 1 hour, 24 hours or 48 hours, the cells were washed and post-incubated in drug-free medium for 72 hours. Growth inhibition was then determined by the MTT assay.

MCF7 = assay: MTT growth inhibition assay, single agent; settings: Homo sapiens, 24 hours exposure, read-out: Antiproliferative effects IC50s (MTT assay)
Experimental: as §1, §2, §3

IGROV1 = assay: MTT growth inhibition assay, single agent; settings: Homo sapiens, IGROV-1, 24 hours exposure, read-out: Antiproliferative effects IC50s (MTT assay)
Experimental: as §1, §2, §3

HCC2998 = assay: MTT growth inhibition assay, single agent; settings: Homo sapiens, HCC 2998, 24 hours exposure, read-out: Antiproliferative effects IC50s (MTT assay)
Experimental: as §1, §2, §3

OVCAR1 = assay: MTT growth inhibition assay, single agent; settings: Homo sapiens, 24 hours exposure, read-out: Antiproliferative effects IC50s (MTT assay)
Experimental: as §1, §2, §3

HOP62 = assay: MTT growth inhibition assay, single agent; settings: Homo sapiens, HOP-62, 24 hours exposure, read-out: Antiproliferative effects IC50s (MTT assay)
Experimental: as §1, §2, §3

HOP92 = assay: MTT growth inhibition assay, single agent; settings: Homo sapiens, HOP-92, 24 hours exposure, read-out: Antiproliferative effects IC50s (MTT assay)
Experimental: as §1, §2, §3

MDA-MB-435 = assay: MTT growth inhibition assay, single agent; settings: Homo sapiens, 24 hours exposure, read-out: Antiproliferative effects IC50s (MTT assay)
Experimental: as §1, §2, §3

COLO205 = assay: MTT growth inhibition assay, single agent; settings: Homo sapiens, COLO 205, 24 hours exposure, read-out: Antiproliferative effects IC50s (MTT assay)
Experimental: as §1, §2, §3

HT29 = assay: MTT growth inhibition assay, single agent; settings: Homo sapiens, HT-29, 24 hours exposure, read-out: Antiproliferative effects IC50s (MTT assay)
Experimental: as §1, §2, §3

[1] = named agent in combination with CNDAC, H1299, CNDAC 24 h then other agent 72 h
[2] = named agent in combination with CNDAC, H1299, named agent 24 h then CNDAC 72 h
[3] = named agent in combination with CNDAC, H1299

| SMILES | Interaction with CNDAC (in words), summary of Table 3 (NSCLC cell line H1299) | Combination Index at ED50, Concomitant (NSCLC cell line H1299; [3]) | Combination Index at ED75, Concomitant (NSCLC cell line H1299; [3]) | Combination Index at ED90, Concomitant (NSCLC cell line H1299; [3]) | IC50 (HCT116) [µM] | IC50 (MCF7) [µM] | IC50 (IGROV1) [µM] | IC50 (HCC2998) [µM] | IC50 (OVCAR1) [µM] | IC50 (HOP62) [µM] | IC50 (HOP92) [µM] | IC50 (MDA-MB-435) [µM] | IC50 (COLO205) [µM] | IC50 (HT29) [µM] | other results |
| --- | --- | --- | --- | --- | --- | --- | --- | --- | --- | --- | --- | --- | --- | --- | --- |
| COc1cccc2c1C(=O)c1c(O)c3c(c(O)c1C2=O)C[C@@](O)(C(=O)CO)C[C@@H]3O[C@H]1C[C@H](N)[C@H](O)[C@H](C)O1 [Doxorubicin] | synergistic drug interactions | 0.63 | 1.14 | 2.75 | 0.1 ± 0.02 | 0.7 ± 0.1 | 1.3 ± 0.3 | 0.7 ± 0.14 | 1 ± 0.2 | 0.14 ± 0.04 | 0.1 ± 0.05 | 2 ± 0.4 | 1.5 ± 0.5 | 1.07 ± 0.16 | Interaction with CNDAC at ED50 (in words) (NSCLC cell line H1299; H1299, concomitant treatment): synergy; Interaction with CNDAC at ED50 (in words) (NSCLC cell line H1299; H1299, pre-treatment with named agent): synergy; Combination Index at ED75, CNDAC pretreatment (NSCLC cell line H1299; [1]): 1.24; Combination Index at ED90, CNDAC pretreatment (NSCLC cell line H1299; [1]): 2.23; Combination Index at ED50, CNDAC pretreatment (NSCLC cell line H1299; named agent in combination with CNDAC, H1299, CNDAC 24 h then other agent 72 h, C.I. <1 synergistic, 1 additive, >1 antagonistic): 0.95; Combination Index at ED50, Other (named agent) pretreatment (NSCLC cell line H1299; [2]): 0.64; Combination Index at ED75, Other (named agent) pretreatment (NSCLC cell line H1299; [2]): 0.83; Combination Index at ED90, Other (named agent) pretreatment (NSCLC cell line H1299; [2]): 1.63 |
| CC(=O)O[C@@]12CO[C@@H]1C[C@H](O)[C@@]1(C)C(=O)[C@H](O)C3=C(C)[C@@H](OC(=O)[C@H](O)[C@@H](NC(=O)OC(C)(C)C)c4ccccc4)C[C@@](O)([C@@H](OC(=O)c4ccccc4)[C@H]21)C3(C)C [Docetaxel] | synergistic drug interactions | 0.93 | 1.13 | 2.01 | 0.01 ± 0.02 | 0.01 ± 0.004 | 0.02 ± 0.01 | 0.004 ± 0.001 | 50 ± 0.12 | 0.02 ± 0.04 | 0.005 ± 0.001 | 0.01 ± 0.002 | 0.006 ± 0.001 | 0.01 ± 0.002 | – |
